Experimental data from ChEMBL document CHEMBL1201862, “PubChem BioAssay data set” (2004).
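Five concentrations, 48 hours, 96-well plates. The concentration for 50% growth inhibition is given as GI50.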 Calls of active or inactive are those of the source. No stated cut-off is given here; in the data, active = GI50 up to about 1.1 µM and inactive = higher.

Assays:
Test in all cases: growth of human tumour cells (NCI), 48 h
786-0 = system: 786-0
A498 = system: A498
A549 = system: A549
ACHN = system: ACHN
CAKI-1 = system: CAKI-1
CCRF-CEM = system: CCRF-CEM
COLO 205 = system: COLO 205
DLD-1 = system: DLD-1
DMS-114 = system: DMS-114
EKVX = system: EKVX
HCC 2998 = system: HCC 2998
HCT-116 = system: HCT-116
HCT-15 = system: HCT-15
HL-60 = system: HL-60
HOP-18 = system: HOP-18
HOP-62 = system: HOP-62
HOP-92 = system: HOP-92
HT-29 = system: HT-29
IGROV-1 = system: IGROV-1
K562 = system: K562
KM-20L2 = system: KM-20L2
KM12 = system: KM12
LOX IMVI = system: LOX IMVI
LXFL 529 = system: LXFL 529
M14 = system: M14
M19-MEL = system: M19-MEL
MOLT-4 = system: MOLT-4
Malme-3M = system: Malme-3M
NCI-H226 = system: NCI-H226
NCI-H23 = system: NCI-H23
NCI-H460 = system: NCI-H460
NCI-H522 = system: NCI-H522
OVCAR-3 = system: OVCAR-3
OVCAR-4 = system: OVCAR-4
OVCAR-5 = system: OVCAR-5
OVCAR-8 = system: OVCAR-8
RPMI-8226 = system: RPMI-8226
RXF 393 = system: RXF 393
SF-268 = system: SF-268
SF-295 = system: SF-295
SF-539 = system: SF-539
SK-MEL-28 = system: SK-MEL-28
SK-MEL-2 = system: SK-MEL-2
SK-MEL-5 = system: SK-MEL-5
SK-OV-3 = system: SK-OV-3
SN12C = system: SN12C
SNB-19 = system: SNB-19
SNB-75 = system: SNB-75
SNB-78 = system: SNB-78
SR = system: SR
SW-620 = system: SW-620
TK-10 = system: TK-10
U-251 = system: U-251
UACC-257 = system: UACC-257
UACC-62 = system: UACC-62
UO-31 = system: UO-31
XF498 = system: XF498
DMS-273 = system: DMS-273

Cc1nc(C(N)=S)sc1C(=O)CC(=O)C(=O)Nc1c(C(C)C)cccc1C(C)C
GI50 (786-0): 50.4 µM (inactive) | GI50 (A498): 71 µM (inactive) | GI50 (A549): 35.8 µM (inactive) | GI50 (ACHN): 81.5 µM (inactive) | GI50 (CAKI-1): 42.1 µM (inactive) | GI50 (CCRF-CEM): 44.7 µM (inactive) | GI50 (COLO 205): 43.3 µM (inactive) | GI50 (DLD-1): 55.2 µM (inactive) | GI50 (DMS-114): 26.7 µM (inactive) | GI50 (EKVX): > 100 µM (inactive) | GI50 (HCC 2998): 43.3 µM (inactive) | GI50 (HCT-116): 38.7 µM (inactive) | GI50 (HCT-15): 32.6 µM | GI50 (HL-60): 28 µM (inactive) | GI50 (HOP-18): 35.9 µM (inactive) | GI50 (HOP-62): 86.9 µM (inactive) | GI50 (HOP-92): 26.9 µM (inactive) | GI50 (HT-29): 37.3 µM (inactive) | GI50 (IGROV-1): 61.4 µM (inactive) | GI50 (K562): 24.3 µM (inactive) | GI50 (KM-20L2): 41.3 µM (inactive) | GI50 (KM12): 40.7 µM (inactive) | GI50 (LOX IMVI): 49.3 µM (inactive) | GI50 (LXFL 529): 52 µM (inactive) | GI50 (M14): 35.2 µM (inactive) | GI50 (M19-MEL): 34.1 µM (inactive) | GI50 (MOLT-4): 41 µM (inactive) | GI50 (Malme-3M): 39.2 µM (inactive) | GI50 (NCI-H226): 41.4 µM (inactive) | GI50 (NCI-H23): 30.1 µM (inactive) | GI50 (NCI-H460): 40.5 µM (inactive) | GI50 (NCI-H522): 18 µM (inactive) | GI50 (OVCAR-3): 18.3 µM (inactive) | GI50 (OVCAR-4): > 100 µM (inactive) | GI50 (OVCAR-5): > 100 µM (inactive) | GI50 (OVCAR-8): 36 µM (inactive) | GI50 (RPMI-8226): 55.8 µM (inactive) | GI50 (RXF 393): 20.3 µM (inactive) | GI50 (SF-268): > 100 µM (inactive) | GI50 (SF-295): 29.2 µM (inactive) | GI50 (SF-539): 44.4 µM (inactive) | GI50 (SK-MEL-28): > 100 µM (inactive) | GI50 (SK-MEL-2): 65.5 µM (inactive) | GI50 (SK-MEL-5): 54.6 µM (inactive) | GI50 (SK-OV-3): 36 µM (inactive) | GI50 (SN12C): 56.8 µM (inactive) | GI50 (SNB-19): 45.8 µM (inactive) | GI50 (SNB-75): 25.2 µM (inactive) | GI50 (SNB-78): 66.2 µM (inactive) | GI50 (SR): 26.4 µM (inactive) | GI50 (SW-620): 48.9 µM (inactive) | GI50 (TK-10): > 100 µM (inactive) | GI50 (U-251): 36.6 µM (inactive) | GI50 (UACC-257): 60.4 µM (inactive) | GI50 (UACC-62): 42.5 µM (inactive) | GI50 (UO-31): 39.3 µM (inactive) | GI50 (XF498): 24.5 µM (inactive)

O=C1OC2(CC1C1(O)C3CC4CC(C3)CC1C4)C1CC3CC(C1)CC2C3 (stereo not given)
GI50 (A498): 28.1 µM (inactive) | GI50 (A549): 56.4 µM (inactive) | GI50 (ACHN): > 100 µM (inactive) | GI50 (CCRF-CEM): 85.1 µM (inactive) | GI50 (DLD-1): > 100 µM (inactive) | GI50 (DMS-114): 82 µM (inactive) | GI50 (DMS-273): > 100 µM (inactive) | GI50 (HCT-116): 49.7 µM (inactive) | GI50 (HCT-15): > 100 µM | GI50 (HL-60): > 100 µM (inactive) | GI50 (HOP-18): 6.61 µM (inactive) | GI50 (HT-29): > 100 µM (inactive) | GI50 (IGROV-1): 77.6 µM (inactive) | GI50 (K562): > 100 µM (inactive) | GI50 (KM12): > 100 µM (inactive) | GI50 (LOX IMVI): 27.9 µM (inactive) | GI50 (LXFL 529): > 100 µM (inactive) | GI50 (M14): > 100 µM (inactive) | GI50 (M19-MEL): > 100 µM (inactive) | GI50 (MOLT-4): > 100 µM (inactive) | GI50 (Malme-3M): 58.3 µM (inactive) | GI50 (NCI-H226): > 100 µM (inactive) | GI50 (NCI-H23): > 100 µM (inactive) | GI50 (NCI-H460): 32.1 µM (inactive) | GI50 (OVCAR-3): 44.6 µM (inactive) | GI50 (OVCAR-4): 22.1 µM (inactive) | GI50 (OVCAR-8): 35.1 µM (inactive) | GI50 (RXF 393): > 100 µM (inactive) | GI50 (SF-268): > 100 µM (inactive) | GI50 (SF-295): 14.5 µM (inactive) | GI50 (SF-539): > 100 µM (inactive) | GI50 (SK-MEL-28): > 100 µM (inactive) | GI50 (SK-MEL-2): > 100 µM (inactive) | GI50 (SK-MEL-5): 38.3 µM (inactive) | GI50 (SN12C): 65.3 µM (inactive) | GI50 (SNB-75): 40.8 µM (inactive) | GI50 (SNB-78): > 100 µM (inactive) | GI50 (SW-620): 65.9 µM (inactive) | GI50 (TK-10): > 100 µM (inactive) | GI50 (UACC-257): > 100 µM (inactive) | GI50 (UACC-62): > 100 µM (inactive) | GI50 (UO-31): > 100 µM (inactive) | GI50 (XF498): 9.77 µM (inactive)

CC(=O)NC1=C(C)C(=O)c2c(nc3n2CCC3O)C1=N (stereo not given)
GI50 (786-0): 18.6 µM (inactive) | GI50 (A498): 27.2 µM (inactive) | GI50 (A549): 30.8 µM (inactive) | GI50 (ACHN): 16.3 µM (inactive) | GI50 (CAKI-1): 13.4 µM (inactive) | GI50 (CCRF-CEM): 2.93 µM (inactive) | GI50 (COLO 205): 18.9 µM (inactive) | GI50 (DLD-1): 11.6 µM (inactive) | GI50 (DMS-114): 3.4 µM (inactive) | GI50 (DMS-273): 17.8 µM (inactive) | GI50 (EKVX): 21.1 µM (inactive) | GI50 (HCC 2998): 21.3 µM (inactive) | GI50 (HCT-116): 2.39 µM (inactive) | GI50 (HCT-15): 19.2 µM | GI50 (HL-60): 4.49 µM (inactive) | GI50 (HOP-18): 17.6 µM (inactive) | GI50 (HOP-62): 38.8 µM (inactive) | GI50 (HOP-92): 4.36 µM (inactive) | GI50 (HT-29): 17.6 µM (inactive) | GI50 (IGROV-1): 18.7 µM (inactive) | GI50 (K562): 8.67 µM (inactive) | GI50 (KM-20L2): 19.5 µM (inactive) | GI50 (KM12): 18.5 µM (inactive) | GI50 (LOX IMVI): 5.85 µM (inactive) | GI50 (M19-MEL): 2.36 µM (inactive) | GI50 (MOLT-4): 1.95 µM (inactive) | GI50 (Malme-3M): 6.41 µM (inactive) | GI50 (NCI-H226): 17.4 µM (inactive) | GI50 (NCI-H23): 14.8 µM (inactive) | GI50 (NCI-H460): 22 µM (inactive) | GI50 (NCI-H522): 6.75 µM (inactive) | GI50 (OVCAR-3): 2.98 µM (inactive) | GI50 (OVCAR-4): 4.09 µM (inactive) | GI50 (OVCAR-5): 21.6 µM (inactive) | GI50 (OVCAR-8): 4.55 µM (inactive) | GI50 (RPMI-8226): > 100 µM (inactive) | GI50 (SF-268): 10.3 µM (inactive) | GI50 (SF-295): 19.3 µM (inactive) | GI50 (SF-539): 4.15 µM (inactive) | GI50 (SK-MEL-28): 17.2 µM (inactive) | GI50 (SK-MEL-2): 9.68 µM (inactive) | GI50 (SK-MEL-5): 13 µM (inactive) | GI50 (SK-OV-3): 28.2 µM (inactive) | GI50 (SN12C): 6.19 µM (inactive) | GI50 (SNB-19): 25.1 µM (inactive) | GI50 (SNB-75): 26.2 µM (inactive) | GI50 (SNB-78): 3.05 µM (inactive) | GI50 (SR): > 100 µM (inactive) | GI50 (SW-620): 13.3 µM (inactive) | GI50 (TK-10): 29.9 µM (inactive) | GI50 (U-251): 13.2 µM (inactive) | GI50 (UACC-257): 3.9 µM (inactive) | GI50 (UACC-62): 4.71 µM (inactive) | GI50 (UO-31): 22.9 µM (inactive) | GI50 (XF498): 3.81 µM (inactive)
